# From paper PMC3362318 (Invertebrate Neuroscience, 2012)
# Tests used:
# Hco-L-AChR1 [1] = target: T1, Hco-L-AChR1 (Haemonchus contortus, UniProt A9XX24+D6MYE9+D6MYF3+D6MYF4); test: two-electrode voltage clamp, Xenopus oocytes, dose-response; type: cell-based
# Hco-L-AChR2 = target: T2, Hco-L-AChR2 (Haemonchus contortus, UniProt D6MYE9+D6MYF3+D6MYF4); test: two-electrode voltage clamp, Xenopus oocytes, peak current; type: cell-based; conditions: agonist; -60 mV, 1 mM external CaCl2, pH 7.3, BAPTA-AM treated
# T2 sequence (D6MYE9 21-498): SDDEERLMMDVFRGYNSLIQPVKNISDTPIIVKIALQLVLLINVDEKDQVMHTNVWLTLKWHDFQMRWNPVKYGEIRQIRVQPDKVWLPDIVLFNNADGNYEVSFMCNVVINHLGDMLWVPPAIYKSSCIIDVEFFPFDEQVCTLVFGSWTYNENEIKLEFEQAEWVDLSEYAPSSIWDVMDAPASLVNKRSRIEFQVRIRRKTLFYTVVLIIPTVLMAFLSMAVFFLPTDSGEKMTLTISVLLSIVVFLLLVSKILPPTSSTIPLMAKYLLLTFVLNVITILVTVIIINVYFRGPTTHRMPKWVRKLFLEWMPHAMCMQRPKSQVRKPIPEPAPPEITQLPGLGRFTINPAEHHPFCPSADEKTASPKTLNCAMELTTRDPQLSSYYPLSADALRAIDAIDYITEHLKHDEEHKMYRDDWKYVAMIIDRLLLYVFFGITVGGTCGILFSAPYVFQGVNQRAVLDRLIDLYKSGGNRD
# T2 sequence (D6MYF3 20-512): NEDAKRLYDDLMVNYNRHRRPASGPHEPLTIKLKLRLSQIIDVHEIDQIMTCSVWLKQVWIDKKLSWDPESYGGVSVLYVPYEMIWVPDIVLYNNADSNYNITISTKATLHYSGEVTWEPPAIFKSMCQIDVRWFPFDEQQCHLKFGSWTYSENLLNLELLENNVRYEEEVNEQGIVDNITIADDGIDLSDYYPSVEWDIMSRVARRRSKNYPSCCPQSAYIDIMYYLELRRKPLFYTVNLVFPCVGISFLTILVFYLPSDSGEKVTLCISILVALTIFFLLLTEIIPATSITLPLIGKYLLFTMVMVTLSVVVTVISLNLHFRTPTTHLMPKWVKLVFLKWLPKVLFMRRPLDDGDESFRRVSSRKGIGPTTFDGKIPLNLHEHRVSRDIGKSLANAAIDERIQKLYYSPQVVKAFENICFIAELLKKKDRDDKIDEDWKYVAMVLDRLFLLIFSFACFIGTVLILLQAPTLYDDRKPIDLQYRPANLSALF
# T2 sequence (D6MYF4 22-504): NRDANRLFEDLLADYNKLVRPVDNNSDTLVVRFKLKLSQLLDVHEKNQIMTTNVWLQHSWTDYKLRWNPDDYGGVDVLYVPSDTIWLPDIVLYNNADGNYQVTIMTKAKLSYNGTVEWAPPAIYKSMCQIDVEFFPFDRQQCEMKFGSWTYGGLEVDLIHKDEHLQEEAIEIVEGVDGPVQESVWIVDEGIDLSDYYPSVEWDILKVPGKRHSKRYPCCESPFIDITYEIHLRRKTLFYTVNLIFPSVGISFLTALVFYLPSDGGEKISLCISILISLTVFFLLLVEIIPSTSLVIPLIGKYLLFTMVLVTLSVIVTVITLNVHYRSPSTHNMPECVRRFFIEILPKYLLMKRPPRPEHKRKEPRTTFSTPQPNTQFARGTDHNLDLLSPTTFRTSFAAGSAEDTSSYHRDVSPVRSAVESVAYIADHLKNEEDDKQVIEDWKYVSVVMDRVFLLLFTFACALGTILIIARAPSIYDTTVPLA
# Hco-L-AChR1 [2] = target: T1, Hco-L-AChR1; conditions: agonist; 30 μM; -60 mV, 1 mM external CaCl2, pH 7.3, BAPTA-AM treated
# T1 sequence (A9XX24 19-536, one chain of several): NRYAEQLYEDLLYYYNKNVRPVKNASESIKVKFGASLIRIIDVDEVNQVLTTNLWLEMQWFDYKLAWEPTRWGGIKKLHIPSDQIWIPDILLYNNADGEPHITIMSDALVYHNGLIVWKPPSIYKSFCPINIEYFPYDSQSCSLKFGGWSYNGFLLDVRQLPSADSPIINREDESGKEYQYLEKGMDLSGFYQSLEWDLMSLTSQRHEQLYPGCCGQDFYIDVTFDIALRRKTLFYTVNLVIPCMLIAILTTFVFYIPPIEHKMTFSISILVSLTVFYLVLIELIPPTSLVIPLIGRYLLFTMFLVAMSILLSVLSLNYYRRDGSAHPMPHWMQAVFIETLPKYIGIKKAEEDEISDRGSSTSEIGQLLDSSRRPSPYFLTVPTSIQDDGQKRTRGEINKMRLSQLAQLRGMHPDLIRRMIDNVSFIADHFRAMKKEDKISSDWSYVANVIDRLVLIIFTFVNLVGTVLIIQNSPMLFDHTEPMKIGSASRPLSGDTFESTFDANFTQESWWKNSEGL
SMILES,EC50 (Hco-L-AChR1 [1]),"two-electrode voltage clamp, Xenopus oocytes, peak current (Hco-L-AChR2)","two-electrode voltage clamp, Xenopus oocytes, peak current (Hco-L-AChR1 [2])"
"C[N+](C)(CCOc1ccccc1)Cc1ccccc1 [Beph, bephenium]",7.7 ± 0.6 µM,,
"c1ccc([C@H]2CN3CCSC3=N2)cc1 [Lev, levamisole]",6.08 ± 0.3 µM,Hco-L-AChR2 potency series was: pyrantel > acetylcholine > nicotine > levamisole,
"CN1CCC[C@H]1c1cccnc1 [Nic, nicotine]",,Hco-L-AChR2 potency series was: pyrantel > acetylcholine > nicotine > levamisole,
"CN1CCCN=C1/C=C/c1cccs1 [Pyr, pyrantel]",,Hco-L-AChR2 potency series was: pyrantel > acetylcholine > nicotine > levamisole,levamisole > acetylcholine > pyrantel > nicotine for the Hco-L-AChR1
